Results published in paper PMC6153204 (2018).

Legend:
[1] = test system: A09 (DNA, aptamer) GACATATTCAGTCTGACAGCGGAAGCGGGTCAGTCCAACTCACGGTCTCGCATGCACGGGAGATGGACGAATATCGTCTAGC; experiment: plate saturation binding, absorbance at 450 nm, nonlinear regression; details: varied aptamer, fixed rongalite; immobilised compound (implied by plate assay); buffer not stated
[2] = test system: B09 (DNA, aptamer) GCTAGACGATATTCGTCCATCTCCCGTGCATGCGAGACCGTGAGTTGGACTGACCCGCTTCCGCTGTCAGACTGAATATGTC; experiment: as above; details: varied aptamer, fixed rongalite; immobilised compound (implied by plate assay); buffer not stated

## O=S(O)CO
[1]
  Kd: 0.06112 ± 0.01636 µM
[2]
  Kd: 0.03981 ± 0.01273 µM
